Data: article PMC10280016 (Frontiers in Molecular Biosciences, 2023)
Entries after “also recorded” stand apart in the source; their conditions may differ. Where two headings read alike, the source gives them in different places.

How the values were obtained:
SARS-CoV-2 strain G614 [1] = assay: microbe, parasite or virus in culture; type: cell-based; settings: for IC50: Severe acute respiratory syndrome coronavirus 2, 24 h, read-out: Anti-SARS-CoV-2 activity, spike immunostaining assay (IC50 ± SD)
in vitro = settings: human, Caco-2
SARS-CoV-2 [2] = test system: SARS-CoV-2
SARS-CoV-2 [3] = settings: primary human bronchial epithelial cells, air-liquid interface culture; ref ter Ellen et al., 2021; cited from earlier work
SARS-CoV-2 [4] = settings: Vero E6 cells; ref ter Ellen et al., 2021; cited from earlier work
[5] = target: T1, SARS-CoV-2 main protease (Mpro) (Severe acute respiratory syndrome coronavirus 2, UniProt P0DTD1); type: biochemical
T1 construct: made in house

SARS-CoV-2 [6] = settings: ref Bojkova et al., 2023; cited from earlier work
SARS-CoV-2 strain G614 [7] = settings: false positive in the assay; ref Bojkova et al., 2023; cited from earlier work
SARS-CoV-2 strain G614 [8] = type: cell-based; settings: at 10 µM
[9] = test system: SARS-CoV main protease (Mpro, 3CL protease); settings: ref Wen et al., 2007; cited from earlier work
SARS-CoV = settings: cited from earlier work

| Compound | Selectivity index (CC50/IC50) (SARS-CoV-2 strain G614 [1]) | IC50 (SARS-CoV-2 strain G614 [1]) | CC50 (in vitro) | further results |
| --- | --- | --- | --- | --- |
| COc1ccc2c(c1)OC1c3ccc(O)cc3OCC21 (single isomer, unassigned; (-)) [Compound 2, (−)-medicarpin] | >3.0 | 33.4 ± 9.7 µM | > 100 µM | – |
| Oc1ccc2c(c1)OCC1c3cc4c(cc3OC21)OCO4 (single isomer, unassigned; (-)) [Compound 3, (−)-maackiain] | – | > 100 µM | > 100 µM | – |
| COc1cc2c(cc1O)C1COc3cc(O)ccc3C1O2 (single isomer, unassigned; (-)) [Compound 4, (−)-3,8-dihydroxy-9-methoxypterocarpan] | – | > 100 µM | > 100 µM | MN Analysis: Activity classification (predicted anti-SARS-CoV-2 activity of the compound) (SARS-CoV-2 [2]): inactive |
| COc1cc(/C=C/c2ccc(O)cc2)cc(OC)c1 [Compound 1, (E)-pterostilbene] | >2.9 | 34.7 ± 1.6 µM | > 100 µM | Anti-SARS-CoV-2 activity (SARS-CoV-2 [3]): has shown anti-SARS-CoV-2 activity; Anti-SARS-CoV-2 activity (SARS-CoV-2 [4]): has shown anti-SARS-CoV-2 activity |
| COc1ccc2c(c1)O[C@H]1c3ccc(OC)cc3OC[C@@H]21 [Compound 5, (−)-homopterocarpin] | >5.8 | 17.2 ± 1.9 µM | > 100 µM | SARS-CoV-2 Mpro inhibition [5]: did not show any inhibitory activity; also recorded: no inhibitory activity; MN Analysis: Activity classification (predicted anti-SARS-CoV-2 activity of the compound) (SARS-CoV-2 [2]): active |
| COc1ccc2c(c1)OC[C@H]1c3cc4c(cc3O[C@@H]21)OCO4 [Compound 6, (−)-pterocarpin] | – | > 100 µM | > 100 µM | MN Analysis: Activity classification (predicted anti-SARS-CoV-2 activity of the compound) (SARS-CoV-2 [2]): active |
| COc1ccc2c(c1)OC[C@H]1c3cc(O)c(OC)cc3O[C@@H]21 [Compound 7, (−)-8-hydroxyhomopterocarpan] | – | > 100 µM | > 100 µM | – |
| COc1ccc(CCCc2ccc(O)c(OC)c2)c(OC)c1 [Compound 9, pterosantalin D] | – | > 100 µM | > 100 µM | – |
| COc1cc(O)c2c(=O)c(-c3ccc(O)cc3)coc2c1 [Compound 11, 7-O-methylgenistein] | >2.6 | 37.9 ± 5.4 µM | > 100 µM | – |
| COc1cc(O)c2c(=O)c(-c3ccc(O)c(OC)c3)coc2c1 [Compound 12, 7,3′-di-O-methylorobol] | – | > 100 µM | > 100 µM | – |
| COc1cc(O)c2c(=O)c(-c3ccc(O)c(O)c3)coc2c1 [Compound 13, santal] | >1.4 | 74.2 ± 15.4 µM | > 100 µM | – |
| COc1ccc(-c2coc3cc(O)cc(O)c3c2=O)c(OC)c1O [Compound 14, khrinone C] | – | > 100 µM | > 100 µM | MN Analysis: Activity classification (predicted anti-SARS-CoV-2 activity of the compound) (SARS-CoV-2 [2]): inactive |
| COc1ccc2c(c1)oc(=O)c1c3ccc(OC)cc3oc21 [Compound 16, 3,9-di-O-methylcoumestrol] | – | > 100 µM | > 100 µM | – |
| COc1ccc([C@@H]2COc3cc(OC)ccc3C2)c(O)c1 [Compound 22, (−)-isosativan] | >2.5 | 40.8 ± 1.8 µM | > 100 µM | – |
| COc1ccc([C@@H]2COc3cc(OC)ccc3C2=O)cc1 [Compound 23, (+)-7,4′-di-O-methyldihydrodaidzein] | >1.9 | 53.3 ± 6.2 µM | > 100 µM | – |
| C[C@H](NC(=O)C(=O)Nc1ccccc1C(C)(C)C)C(=O)N[C@@H](CC(=O)O)C(=O)COc1c(F)c(F)cc(F)c1F [emricasan] | – | – | – | Effect on SARS-CoV-2 replication (SARS-CoV-2 [6]): did not affect SARS-CoV-2 replication; Effect on SARS-CoV-2-induced caspase 3/7 activity (SARS-CoV-2 strain G614 [7]): supressed SARS-CoV-2-induced caspase 3/7 activity |
| CCC(CC)COC(=O)[C@H](C)N[P@](=O)(OC[C@H]1O[C@@](C#N)(c2ccc3c(N)ncnn23)[C@H](O)[C@@H]1O)Oc1ccccc1 [remdesivir, reference compound] | >58.8 | 0.17 ± 0.01 µM | > 10 µM | Anti-SARS-CoV-2 activity, Caspase assay [% inhibition] (SARS-CoV-2 strain G614 [8]): 93.4 (at 10 µM) % inhibition; Selectivity index CC50/IC50 (SARS-CoV-2 strain G614 [1]): >58.8 |
| O=C1OC[C@H](Cc2ccc3c(c2)OCO3)/C1=C\c1ccc2c(c1)OCO2 [savinin] | – | – | – | Inhibition of SARS-CoV main protease, mode [9]: competitive inhibition; Anti-SARS-CoV activity EC50 (SARS-CoV): low micromolar range |
